Data taken from PubChem BioAssay AID256 (DTP/NCI, 2004).
Several values for one entry are separate records, joined by “and”; a condition that tells them apart may be missing. Equal entries are not always repeated. Inconclusive results and toxic doses are left out. Rule for the calls: active = survival T/C of 150% or more; inactive = T/C below 125% in these data.

System: CD2F1 mice, L1210 leukemia ip, survival T/C
Experiment: NCI In Vivo Anticancer Drug Screen. Data for tumor model L1210 Leukemia (intraperitoneal) in CD2F1 (CDF1) mice
Details: higher = longer survival
How it was run: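 Antitumor effect is scored in animals hosting a serially transplanted tumor. Values compare compound-dosed animals against vehicle-only controls as a simple quotient.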

[1] = endpoint: mean survival time, dose: 25.0 mg/kg/injection, schedule: Q04DX002 (ip), vehicle: saline with Tween-80
[2] = endpoint: mean survival time, dose: 100.0 mg/kg/injection, schedule: Q04DX002 (ip), vehicle: saline with Tween-80
[3] = endpoint: mean survival time, dose: 100.0 mg/kg/injection, schedule: Q04DX003 (ip), vehicle: saline
[4] = endpoint: mean survival time, dose: 75.0 mg/kg/injection, schedule: Q01DX001 (ip), vehicle: other
[5] = endpoint: mean survival time, dose: 150.0 mg/kg/injection, schedule: Q01DX001 (ip), vehicle: other
[6] = endpoint: mean survival time, dose: 300.0 mg/kg/injection, schedule: Q01DX001 (ip), vehicle: other
[7] = endpoint: mean survival time, dose: 12.5 mg/kg/injection, schedule: Q04DX003 (ip), vehicle: saline with Tween-80
[8] = endpoint: mean survival time, dose: 100.0 mg/kg/injection, schedule: Q04DX003 (ip), vehicle: saline with Tween-80
[9] = endpoint: mean survival time, dose: 200.0 mg/kg/injection, schedule: Q04DX003 (ip), vehicle: saline with Tween-80
[10] = endpoint: mean survival time, dose: 400.0 mg/kg/injection, schedule: Q04DX003 (ip), vehicle: saline with Tween-80
[11] = endpoint: mean survival time, dose: 25.0 mg/kg/injection, schedule: Q04DX002 (ip), vehicle: saline
[12] = endpoint: mean survival time, dose: 50.0 mg/kg/injection, schedule: Q04DX002 (ip), vehicle: saline

Measured: T/C

CC1=C(NNS(=O)(=O)c2ccc(C)cc2)CCCC1=O
inactive: [1] 94 % of control | endpoint: mean survival time, dose: 50.0 mg/kg/injection, schedule: Q04DX002 (ip), vehicle: saline with Tween-80 97 % of control | [2] 91 % of control and 96 % of control

Clc1nnc(-c2ccccc2)c(-c2ccccc2)n1
inactive: [3] 91 % of control

NC(=O)Oc1cccc(OC(N)=O)c1
inactive: endpoint: mean survival time, dose: 25.0 mg/kg/injection, schedule: Q01DX009 (ip), vehicle: water 95 % of control | endpoint: mean survival time, dose: 50.0 mg/kg/injection, schedule: Q01DX009 (ip), vehicle: water 106 % of control | endpoint: mean survival time, dose: 100.0 mg/kg/injection, schedule: Q01DX009 (ip), vehicle: water 106 % of control | endpoint: mean survival time, dose: 200.0 mg/kg/injection, schedule: Q01DX009 (ip), vehicle: water 104 % of control | endpoint: mean survival time, dose: 400.0 mg/kg/injection, schedule: Q01DX009 (ip), vehicle: water 106 % of control

O=c1[nH]cc([N+](=O)[O-])c(=O)[nH]1
inactive: [2] 97 % of control | endpoint: mean survival time, dose: 200.0 mg/kg/injection, schedule: Q04DX002 (ip), vehicle: saline with Tween-80 97 % of control | endpoint: mean survival time, dose: 400.0 mg/kg/injection, schedule: Q04DX002 (ip), vehicle: saline with Tween-80 101 % of control

O=C(O)CCN1CCS(=O)(=O)C1=S
inactive: [4] 101 % of control | [5] 95 % of control | [6] 104 % of control

N#CSCc1cc(=O)c(O)co1
inactive: endpoint: mean survival time, dose: 6.25 mg/kg/injection, schedule: Q04DX003 (ip), vehicle: saline with Tween-80 104 % of control | [7] 94 % of control

Cc1noc(N)c1N
inactive: endpoint: median survival time, dose: 12.5 mg/kg/injection, schedule: Q01DX009 (ip), vehicle: water 98 % of control | endpoint: median survival time, dose: 25.0 mg/kg/injection, schedule: Q01DX009 (ip), vehicle: water 100 % of control | endpoint: median survival time, dose: 50.0 mg/kg/injection, schedule: Q01DX009 (ip), vehicle: water 100 % of control | endpoint: median survival time, dose: 100.0 mg/kg/injection, schedule: Q01DX009 (ip), vehicle: water 113 % of control and 104 % of control and 110 % of control | endpoint: median survival time, dose: 150.0 mg/kg/injection, schedule: Q01DX009 (ip), vehicle: water 109 % of control

Cc1ccc2scc3c4ccccc4nc-3c2c1
inactive: endpoint: mean survival time, dose: 100.0 mg/kg/injection, schedule: Q04DX003 (ip), vehicle: acetone 97 % of control

CC(C)(CCl)c1ccc(C(C)(C)CCl)cc1
inactive: [8] 100 % of control | [9] 91 % of control | [10] 100 % of control

COC(=O)[C@@]12OC[C@]34[C@H]([C@@H](O)[C@@H]1O)[C@@]1(C)CC(=O)C(O)=C(C)[C@@H]1C[C@H]3OC(=O)[C@H](OC(=O)/C=C(\C)C(C)C)[C@@H]24
inactive: endpoint: mean survival time, dose: 125.0 micrograms/kg/injection, schedule: Q01DX009 (ip), vehicle: saline + alcohol 120 % of control | endpoint: mean survival time, dose: 250.0 micrograms/kg/injection, schedule: Q01DX009 (ip), vehicle: saline + alcohol 106 % of control | endpoint: mean survival time, dose: 500.0 micrograms/kg/injection, schedule: Q01DX009 (ip), vehicle: saline + alcohol 112 % of control | endpoint: mean survival time, dose: 1000.0 micrograms/kg/injection, schedule: Q01DX009 (ip), vehicle: saline + alcohol 120 % of control | endpoint: median survival time, dose: 0.25 mg/kg/injection, schedule: Q01DX009 (ip), vehicle: saline + alcohol 120 % of control and 122 % of control | endpoint: median survival time, dose: 0.5 mg/kg/injection, schedule: Q01DX009 (ip), vehicle: saline + alcohol 120 % of control

O=C1CC2CC1C1C3CCC(CC3)C21 (stereo not drawn)
inactive: endpoint: mean survival time, dose: 3.13 mg/kg/injection, schedule: Q01DX009 (ip), vehicle: saline with Tween-80 86 % of control | endpoint: mean survival time, dose: 6.25 mg/kg/injection, schedule: Q01DX009 (ip), vehicle: saline with Tween-80 101 % of control | endpoint: mean survival time, dose: 12.5 mg/kg/injection, schedule: Q01DX009 (ip), vehicle: saline with Tween-80 90 % of control and 98 % of control

C=CCN(CC=C)P(=O)(N1CC1C)N1CC1C (stereo not drawn)
inactive: endpoint: mean survival time, dose: 1.0 mg/kg/injection, schedule: Q01DX009 (ip), vehicle: saline 122 % of control | endpoint: mean survival time, dose: 2.5 mg/kg/injection, schedule: Q01DX001 (ip), vehicle: saline 115 % of control

CCCCCCCCCCCCCCC/C(=C\c1ccc2ccccc2c1)[N+](=O)[O-]
inactive: [4] 95 % of control | [5] 89 % of control | [6] 102 % of control

COC1OC(C2N(c3ccccc3)CCN2c2ccccc2)=CC(OC(C)=O)C1OC(C)=O (stereo not drawn)
inactive: [8] 97 % of control | [9] 107 % of control | [10] 95 % of control

Cc1nc(N)[nH]c(=O)c1-n1nnc2ccccc2c1=O
inactive: endpoint: mean survival time, dose: 100.0 mg/kg/injection, schedule: Q01DX001 (ip), vehicle: saline with Tween-80 92 % of control | endpoint: mean survival time, dose: 200.0 mg/kg/injection, schedule: Q01DX001 (ip), vehicle: saline with Tween-80 87 % of control | endpoint: mean survival time, dose: 400.0 mg/kg/injection, schedule: Q01DX001 (ip), vehicle: saline with Tween-80 89 % of control

Nc1ccc(OCc2nc(N)nc(N)c2-c2cccc(Cl)c2)cc1
inactive: endpoint: mean survival time, dose: 100.0 mg/kg/injection, schedule: Q01DX001 (ip), vehicle: saline + alcohol 103 % of control | endpoint: mean survival time, dose: 200.0 mg/kg/injection, schedule: Q01DX001 (ip), vehicle: saline + alcohol 101 % of control | endpoint: mean survival time, dose: 400.0 mg/kg/injection, schedule: Q01DX001 (ip), vehicle: saline + alcohol 106 % of control

CS(=O)(=O)CC#N
inactive: endpoint: mean survival time, dose: 6.25 mg/kg/injection, schedule: Q04DX002 (ip), vehicle: saline with Tween-80 91 % of control and 109 % of control | endpoint: mean survival time, dose: 12.5 mg/kg/injection, schedule: Q01DX001 (ip), vehicle: saline with Tween-80 93 % of control | endpoint: mean survival time, dose: 12.5 mg/kg/injection, schedule: Q01DX009 (ip), vehicle: saline 92 % of control | endpoint: mean survival time, dose: 12.5 mg/kg/injection, schedule: Q04DX002 (ip), vehicle: saline with Tween-80 91 % of control and 102 % of control | [7] 97 % of control | endpoint: mean survival time, dose: 25.0 mg/kg/injection, schedule: Q01DX001 (ip), vehicle: saline with Tween-80 106 % of control | endpoint: mean survival time, dose: 25.0 mg/kg/injection, schedule: Q01DX009 (ip), vehicle: saline 92 % of control and 98 % of control | [1] 94 % of control and 101 % of control | [11] 99 % of control and 103 % of control | endpoint: mean survival time, dose: 25.0 mg/kg/injection, schedule: Q04DX003 (ip), vehicle: saline with Tween-80 97 % of control | endpoint: mean survival time, dose: 50.0 mg/kg/injection, schedule: Q01DX001 (ip), vehicle: saline with Tween-80 100 % of control | [12] 100 % of control

CC1CC2OC(=O)C(O)(CO)C2CC2(C)C(=O)C=CC12 (stereo not drawn)
inactive: [11] 102 % of control | [12] 107 % of control

C1CCC(N2CCOCC2)CC1
inactive: [11] 105 % of control | [12] 102 % of control

CCCCNC(=O)CC(C)C(=O)O (stereo not drawn)
inactive: [8] 102 % of control | [9] 98 % of control | [10] 102 % of control

O=C(Nc1nccs1)C(F)(F)F
inactive: endpoint: median survival time, dose: 50.0 mg/kg/injection, schedule: Q01DX009 (ip), vehicle: saline 100 % of control | endpoint: median survival time, dose: 100.0 mg/kg/injection, schedule: Q01DX009 (ip), vehicle: saline 108 % of control | endpoint: median survival time, dose: 200.0 mg/kg/injection, schedule: Q01DX009 (ip), vehicle: saline 108 % of control | endpoint: median survival time, dose: 400.0 mg/kg/injection, schedule: Q01DX009 (ip), vehicle: saline 109 % of control

CN(C)C1C(c2ccccc2)S(=O)(=O)C1(C)C (stereo not drawn)
inactive: endpoint: mean survival time, dose: 100.0 mg/kg/injection, schedule: Q01DX001 (ip), vehicle: saline 100 % of control | [3] 96 % of control | endpoint: mean survival time, dose: 200.0 mg/kg/injection, schedule: Q01DX001 (ip), vehicle: saline 100 % of control | endpoint: mean survival time, dose: 200.0 mg/kg/injection, schedule: Q04DX003 (ip), vehicle: saline 101 % of control | endpoint: mean survival time, dose: 400.0 mg/kg/injection, schedule: Q01DX001 (ip), vehicle: saline 100 % of control | endpoint: mean survival time, dose: 400.0 mg/kg/injection, schedule: Q04DX003 (ip), vehicle: saline 97 % of control
